Assay results as given in US12637437B2, “Herbicidal compounds” (SYNGENTA CROP PROTECTION AG, priority 2021, dated 2026).

Assays:
Assay type in all cases: in vivo
[1] = system: Amaranthus retoflexus (AMARE); test: Post-emergence herbicidal glasshouse test, AMARE; parameters: dose or concentration left out as unconfirmed; conditions: evaluated after 13 days, five-point scale
Procedure: (§1) Seeds of a variety of test species are sown in standard soil in pots (Lolium perenne (LOLPE), Amaranthus retoflexus (AMARE), Abutilon theophrasti (ABUTH), Setaria faberi (SETFA), Echinochloa crus-galli (ECHCG), Ipomoea hederacea (IPOHE)). After cultivation for one day (pre-emergence) or after 8 days cultivation (post-emergence) under controlled conditions in a glasshouse (at 24/16° C., day/night; 14 hours light; 65% humidity), the plants are sprayed with an aqueous spray solution derived from the formulation of the technical active ingredient in acetone/water (50:50) solution containing 0.5% Tween 20 (polyoxyethelyene sorbitan monolaurate, CAS RN 9005-64-5). Compounds are applied at 125 g/h unless otherwise indicated. The test plants are then grown in a glasshouse under controlled conditions in a glasshouse (at 24/16° C., day/night; 14 hours light; 65% humidity) and watered twice daily. After 13 days for pre and post-emergence, the test is evaluated for the percentage damage caused to the plant. The biological activities are shown in the following table on a five-point scale (5=80-100%; 4=60-79%; 3=40-59%; 2=20-39%; 1=0-19%). “—” denotes not tested on this species or data not captured.

Setaria faberi (SETFA) [2] = test: Post-emergence herbicidal glasshouse test, SETFA; conditions: 125 g/h, evaluated after 13 days, five-point scale
Procedure: as §1

[3] = system: Echinochloa crus-galli (ECHCG); test: Post-emergence herbicidal glasshouse test, ECHCG; conditions: 125 g/h, evaluated after 13 days, five-point scale
Procedure: as §1

[4] = system: Ipomoea hederacea (IPOHE); test: Post-emergence herbicidal glasshouse test, IPOHE; conditions: 125 g/h, evaluated after 13 days, five-point scale
Procedure: as §1

[5] = system: Amaranthus retoflexus (AMARE); test: Pre-emergence herbicidal glasshouse test, AMARE; conditions: 125 g/h, evaluated after 13 days, five-point scale
Procedure: as §1

Setaria faberi (SETFA) [6] = test: Pre-emergence herbicidal glasshouse test, SETFA; conditions: 125 g/h, evaluated after 13 days, five-point scale
Procedure: as §1

[7] = system: Echinochloa crus-galli (ECHCG); test: Pre-emergence herbicidal glasshouse test, ECHCG; conditions: 125 g/h, evaluated after 13 days, five-point scale
Procedure: as §1

[8] = system: Ipomoea hederacea (IPOHE); test: Pre-emergence herbicidal glasshouse test, IPOHE; conditions: 125 g/h, evaluated after 13 days, five-point scale
Procedure: as §1

Cn1nnnc1NC(=O)c1ccc(OC(F)(F)F)c(NC(=O)OCC(F)F)c1Cl [Compound 1.011]
percentage damage caused to the plant, POST Application AMARE [1]: 4 (4=60-79%)
percentage damage caused to the plant, POST Application SETFA (Setaria faberi (SETFA) [2]): 5 (5=80-100%)
percentage damage caused to the plant, POST Application ECHCG [3]: 5 (5=80-100%)
percentage damage caused to the plant, POST Application IPOHE [4]: 4 (4=60-79%)
percentage damage caused to the plant, PRE Application AMARE [5]: 5 (5=80-100%)
percentage damage caused to the plant, PRE Application SETFA (Setaria faberi (SETFA) [6]): 5 (5=80-100%)
percentage damage caused to the plant, PRE Application ECHCG [7]: 5 (5=80-100%)
percentage damage caused to the plant, PRE Application IPOHE [8]: 4 (4=60-79%)

CCN(C(=O)OC)c1c(OC(F)F)ccc(C(=O)Nc2nnnn2C)c1Cl [Compound 1.043]
percentage damage caused to the plant, POST Application AMARE [1]: 5 (5=80-100%)
percentage damage caused to the plant, POST Application SETFA (Setaria faberi (SETFA) [2]): 5 (5=80-100%)
percentage damage caused to the plant, POST Application ECHCG [3]: 5 (5=80-100%)
percentage damage caused to the plant, POST Application IPOHE [4]: 4 (4=60-79%)
percentage damage caused to the plant, PRE Application AMARE [5]: 5 (5=80-100%)
percentage damage caused to the plant, PRE Application SETFA (Setaria faberi (SETFA) [6]): 5 (5=80-100%)
percentage damage caused to the plant, PRE Application ECHCG [7]: 5 (5=80-100%)
percentage damage caused to the plant, PRE Application IPOHE [8]: 3 (3=40-59%)

CCCOC(=O)Nc1c(OC(F)F)ccc(C(=O)Nc2nnnn2C)c1Cl [Compound 1.016]
percentage damage caused to the plant, POST Application AMARE [1]: 4 (4=60-79%)
percentage damage caused to the plant, POST Application SETFA (Setaria faberi (SETFA) [2]): 5 (5=80-100%)
percentage damage caused to the plant, POST Application ECHCG [3]: 5 (5=80-100%)
percentage damage caused to the plant, POST Application IPOHE [4]: 3 (3=40-59%)
percentage damage caused to the plant, PRE Application AMARE [5]: 5 (5=80-100%)
percentage damage caused to the plant, PRE Application SETFA (Setaria faberi (SETFA) [6]): 3 (3=40-59%)
percentage damage caused to the plant, PRE Application ECHCG [7]: 4 (4=60-79%)
percentage damage caused to the plant, PRE Application IPOHE [8]: 2 (2=20-39%)

CC(C)OC(=O)Nc1c(OC(F)F)ccc(C(=O)Nc2nnnn2C)c1Cl [Compound 1.017]
percentage damage caused to the plant, POST Application AMARE [1]: 5 (5=80-100%)
percentage damage caused to the plant, POST Application SETFA (Setaria faberi (SETFA) [2]): 5 (5=80-100%)
percentage damage caused to the plant, POST Application ECHCG [3]: 5 (5=80-100%)
percentage damage caused to the plant, POST Application IPOHE [4]: 5 (5=80-100%)
percentage damage caused to the plant, PRE Application AMARE [5]: 5 (5=80-100%)
percentage damage caused to the plant, PRE Application SETFA (Setaria faberi (SETFA) [6]): 5 (5=80-100%)
percentage damage caused to the plant, PRE Application ECHCG [7]: 5 (5=80-100%)
percentage damage caused to the plant, PRE Application IPOHE [8]: 4 (4=60-79%)

Cn1nnnc1NC(=O)c1ccc(OC(F)F)c(NC(=O)OCC(F)F)c1Cl [Compound 1.015]
percentage damage caused to the plant, POST Application AMARE [1]: 5 (5=80-100%)
percentage damage caused to the plant, POST Application SETFA (Setaria faberi (SETFA) [2]): 5 (5=80-100%)
percentage damage caused to the plant, POST Application ECHCG [3]: 5 (5=80-100%)
percentage damage caused to the plant, POST Application IPOHE [4]: 4 (4=60-79%)
percentage damage caused to the plant, PRE Application AMARE [5]: 5 (5=80-100%)
percentage damage caused to the plant, PRE Application SETFA (Setaria faberi (SETFA) [6]): 5 (5=80-100%)
percentage damage caused to the plant, PRE Application ECHCG [7]: 5 (5=80-100%)
percentage damage caused to the plant, PRE Application IPOHE [8]: 3 (3=40-59%)

COC(=O)N(C)c1c(OC(F)F)ccc(C(=O)Nc2nnnn2C)c1Cl [Compound 1.042]
percentage damage caused to the plant, POST Application AMARE [1]: 5 (5=80-100%)
percentage damage caused to the plant, POST Application SETFA (Setaria faberi (SETFA) [2]): 5 (5=80-100%)
percentage damage caused to the plant, POST Application ECHCG [3]: 5 (5=80-100%)
percentage damage caused to the plant, POST Application IPOHE [4]: 5 (5=80-100%)
percentage damage caused to the plant, PRE Application AMARE [5]: 5 (5=80-100%)
percentage damage caused to the plant, PRE Application SETFA (Setaria faberi (SETFA) [6]): 5 (5=80-100%)
percentage damage caused to the plant, PRE Application ECHCG [7]: 5 (5=80-100%)
percentage damage caused to the plant, PRE Application IPOHE [8]: 4 (4=60-79%)

COCCOC(=O)Nc1c(OC(F)F)ccc(C(=O)Nc2nnnn2C)c1Cl [Compound 1.018]
percentage damage caused to the plant, POST Application AMARE [1]: 4 (4=60-79%)
percentage damage caused to the plant, POST Application SETFA (Setaria faberi (SETFA) [2]): 5 (5=80-100%)
percentage damage caused to the plant, POST Application ECHCG [3]: 5 (5=80-100%)
percentage damage caused to the plant, POST Application IPOHE [4]: 4 (4=60-79%)
percentage damage caused to the plant, PRE Application AMARE [5]: 4 (4=60-79%)
percentage damage caused to the plant, PRE Application SETFA (Setaria faberi (SETFA) [6]): 3 (3=40-59%)
percentage damage caused to the plant, PRE Application ECHCG [7]: 4 (4=60-79%)
percentage damage caused to the plant, PRE Application IPOHE [8]: 2 (2=20-39%)

Cn1nnnc1NC(=O)c1ccc(OC(F)F)c(N2CCOC2=O)c1Cl [Compound 1.037]
percentage damage caused to the plant, POST Application AMARE [1]: 5 (5=80-100%)
percentage damage caused to the plant, POST Application SETFA (Setaria faberi (SETFA) [2]): 5 (5=80-100%)
percentage damage caused to the plant, POST Application ECHCG [3]: 5 (5=80-100%)
percentage damage caused to the plant, POST Application IPOHE [4]: 5 (5=80-100%)
percentage damage caused to the plant, PRE Application AMARE [5]: 5 (5=80-100%)
percentage damage caused to the plant, PRE Application SETFA (Setaria faberi (SETFA) [6]): 5 (5=80-100%)
percentage damage caused to the plant, PRE Application ECHCG [7]: 5 (5=80-100%)
percentage damage caused to the plant, PRE Application IPOHE [8]: 5 (5=80-100%)

CCOC(=O)N(CC)c1c(OC(F)F)ccc(C(=O)Nc2nnnn2C)c1Cl [Compound 1.044]
percentage damage caused to the plant, POST Application AMARE [1]: 5 (5=80-100%)
percentage damage caused to the plant, POST Application SETFA (Setaria faberi (SETFA) [2]): 5 (5=80-100%)
percentage damage caused to the plant, POST Application ECHCG [3]: 5 (5=80-100%)
percentage damage caused to the plant, POST Application IPOHE [4]: 4 (4=60-79%)
percentage damage caused to the plant, PRE Application AMARE [5]: 5 (5=80-100%)
percentage damage caused to the plant, PRE Application SETFA (Setaria faberi (SETFA) [6]): 4 (4=60-79%)
percentage damage caused to the plant, PRE Application ECHCG [7]: 5 (5=80-100%)
percentage damage caused to the plant, PRE Application IPOHE [8]: 2 (2=20-39%)

CCOC(=O)Nc1c(OC(F)(F)F)ccc(C(=O)Nc2nnnn2C)c1C [Compound 1.036]
percentage damage caused to the plant, POST Application AMARE [1]: 5 (5=80-100%)
percentage damage caused to the plant, POST Application SETFA (Setaria faberi (SETFA) [2]): 5 (5=80-100%)
percentage damage caused to the plant, POST Application ECHCG [3]: 5 (5=80-100%)
percentage damage caused to the plant, POST Application IPOHE [4]: 5 (5=80-100%)
percentage damage caused to the plant, PRE Application AMARE [5]: 5 (5=80-100%)
percentage damage caused to the plant, PRE Application SETFA (Setaria faberi (SETFA) [6]): 5 (5=80-100%)
percentage damage caused to the plant, PRE Application ECHCG [7]: 5 (5=80-100%)
percentage damage caused to the plant, PRE Application IPOHE [8]: 5 (5=80-100%)

COCCCOC(=O)Nc1c(OC(F)F)ccc(C(=O)Nc2nnnn2C)c1Cl [Compound 1.022]
percentage damage caused to the plant, POST Application AMARE [1]: 5 (5=80-100%)
percentage damage caused to the plant, POST Application SETFA (Setaria faberi (SETFA) [2]): 5 (5=80-100%)
percentage damage caused to the plant, POST Application ECHCG [3]: 5 (5=80-100%)
percentage damage caused to the plant, POST Application IPOHE [4]: 4 (4=60-79%)
percentage damage caused to the plant, PRE Application AMARE [5]: 5 (5=80-100%)
percentage damage caused to the plant, PRE Application SETFA (Setaria faberi (SETFA) [6]): 4 (4=60-79%)
percentage damage caused to the plant, PRE Application ECHCG [7]: 4 (4=60-79%)
percentage damage caused to the plant, PRE Application IPOHE [8]: 4 (4=60-79%)

Cn1nnnc1NC(=O)c1ccc(OC(F)F)c(NC(=O)OC2CCOCC2)c1Cl [Compound 1.027]
percentage damage caused to the plant, POST Application AMARE [1]: 5 (5=80-100%)
percentage damage caused to the plant, POST Application SETFA (Setaria faberi (SETFA) [2]): 5 (5=80-100%)
percentage damage caused to the plant, POST Application ECHCG [3]: 5 (5=80-100%)
percentage damage caused to the plant, POST Application IPOHE [4]: 5 (5=80-100%)
percentage damage caused to the plant, PRE Application AMARE [5]: 4 (4=60-79%)
percentage damage caused to the plant, PRE Application SETFA (Setaria faberi (SETFA) [6]): 5 (5=80-100%)
percentage damage caused to the plant, PRE Application ECHCG [7]: 4 (4=60-79%)
percentage damage caused to the plant, PRE Application IPOHE [8]: 4 (4=60-79%)

COC(=O)Nc1c(OC(F)(F)F)ccc(C(=O)Nc2nnnn2C)c1C [Compound 1.035]
percentage damage caused to the plant, POST Application AMARE [1]: 5 (5=80-100%)
percentage damage caused to the plant, POST Application SETFA (Setaria faberi (SETFA) [2]): 5 (5=80-100%)
percentage damage caused to the plant, POST Application ECHCG [3]: 5 (5=80-100%)
percentage damage caused to the plant, POST Application IPOHE [4]: 3 (3=40-59%)
percentage damage caused to the plant, PRE Application AMARE [5]: 5 (5=80-100%)
percentage damage caused to the plant, PRE Application SETFA (Setaria faberi (SETFA) [6]): 5 (5=80-100%)
percentage damage caused to the plant, PRE Application ECHCG [7]: 5 (5=80-100%)
percentage damage caused to the plant, PRE Application IPOHE [8]: 3 (3=40-59%)
